Where no end group is shown, it is not given here.
What was measured:
[1] = tested on: HIV-1IIIB; assay: HIV-1 antiviral CPE assay in CEM-SS cells (MTS); settings: 6 days post-infection, peptide 10 micrograms per ml
[2] = tested on: CEM-SS cells; assay: Cytotoxicity (MTS cell viability) in the HIV-1 assay; settings: MTS, peptide 10 micrograms per ml
[3] = Cytotoxicity testing in MRC-5 cells (CellTiter 96); type: cell-based; settings: human, MRC-5 cells (embryonal lung fibroblasts), 6 days incubation, read-out: % Cell viability
Protocol: For cytotxicity testing, MRC-5 cells were seeded at 2,500 cells/well in 96 well plates using growth medium. […] The following day, peptide was added and tested in duplicates. After a 6 days incubation period, cell viability was measured using CellTiter 96 Solution (Promega). Plates were incubated for additional 4 hours at 37° C.

[4] = tested on: Pseudomonas aeruginosa; assay: Pseudomonas aeruginosa growth inhibition assay; type: cell-based; settings: Mueller-Hinton Broth, read visually, peptide 10 micrograms per ml
[5] = tested on: Streptococcus pneumoniae; assay: Streptococcus pneumoniae growth inhibition assay; type: cell-based; settings: Mueller-Hinton Broth, read visually, peptide 10 micrograms per ml
[6] = tested on: MRSA; settings: Mueller-Hinton Broth, read visually, peptide 10 micrograms per ml
[7] = in vitro; settings: human
[8] = Cytotoxicity (MTS cell viability) in the HIV-1 assay; settings: human, CEM-SS cells

| Compound | % CPE reduction in HIV-1 infected CEM-SS cells [1] | % Cell viability [2] | viability at 144 h [3] | % inhibition [4] | % inhibition [5] | % inhibition [6] | viability at 144 h, 10 micrograms per ml [7] | viability at 10 micrograms per ml [8] |
| --- | --- | --- | --- | --- | --- | --- | --- | --- |
| Cc1cn([C@H]2C[C@H](N=[N+]=[N-])[C@@H](CO)O2)c(=O)[nH]c1=O [AZT] | 99% | 97% |  |  |  |  |  |  |
| MQMKKVLDS-OH [AIP-1] |  |  | 100% | 0.0% | 0.0% | 0.0% | 100% | 100% |
| CC(C)(C)NC(=O)[C@@H]1CN(Cc2cccnc2)CCN1C[C@@H](O)C[C@@H](Cc1ccccc1)C(=O)N[C@H]1c2ccccc2C[C@H]1O [Indinavir] |  | 93% |  |  |  |  |  |  |
